For 2 compounds, Kd results are on record in publication PMC12670511, “Discovery of Nav1.7 Inhibitors through the Screening of Marine Natural Product Extracts” (Journal of Natural Products, 2025).

The target of assay [1] is T1, human Nav1.7 (hNav1.7) voltage-gated sodium channel alpha subunit (Homo sapiens, UniProt Q15858).
T1 construct: gene SCN9A; alpha subunit, stably expressed in HEK293 cells
As to the kind of experiment: Qube automated patch-clamp electrophysiology, HEK293-hNav1.[…], inactivated state (-70 mV); also thallium flux assay IC50 […]. Format: cell-based.

Assay [2] deals with T1, human Nav1.7 (hNav1.7) voltage-gated sodium channel alpha subunit. As to the kind of experiment: Qube automated patch-clamp electrophysiology, HEK293-hNav1.[…], inactivated state (-70 mV). The format is cell-based.

Structures are written as SMILES.

T1 sequence (Q15858 whole entry): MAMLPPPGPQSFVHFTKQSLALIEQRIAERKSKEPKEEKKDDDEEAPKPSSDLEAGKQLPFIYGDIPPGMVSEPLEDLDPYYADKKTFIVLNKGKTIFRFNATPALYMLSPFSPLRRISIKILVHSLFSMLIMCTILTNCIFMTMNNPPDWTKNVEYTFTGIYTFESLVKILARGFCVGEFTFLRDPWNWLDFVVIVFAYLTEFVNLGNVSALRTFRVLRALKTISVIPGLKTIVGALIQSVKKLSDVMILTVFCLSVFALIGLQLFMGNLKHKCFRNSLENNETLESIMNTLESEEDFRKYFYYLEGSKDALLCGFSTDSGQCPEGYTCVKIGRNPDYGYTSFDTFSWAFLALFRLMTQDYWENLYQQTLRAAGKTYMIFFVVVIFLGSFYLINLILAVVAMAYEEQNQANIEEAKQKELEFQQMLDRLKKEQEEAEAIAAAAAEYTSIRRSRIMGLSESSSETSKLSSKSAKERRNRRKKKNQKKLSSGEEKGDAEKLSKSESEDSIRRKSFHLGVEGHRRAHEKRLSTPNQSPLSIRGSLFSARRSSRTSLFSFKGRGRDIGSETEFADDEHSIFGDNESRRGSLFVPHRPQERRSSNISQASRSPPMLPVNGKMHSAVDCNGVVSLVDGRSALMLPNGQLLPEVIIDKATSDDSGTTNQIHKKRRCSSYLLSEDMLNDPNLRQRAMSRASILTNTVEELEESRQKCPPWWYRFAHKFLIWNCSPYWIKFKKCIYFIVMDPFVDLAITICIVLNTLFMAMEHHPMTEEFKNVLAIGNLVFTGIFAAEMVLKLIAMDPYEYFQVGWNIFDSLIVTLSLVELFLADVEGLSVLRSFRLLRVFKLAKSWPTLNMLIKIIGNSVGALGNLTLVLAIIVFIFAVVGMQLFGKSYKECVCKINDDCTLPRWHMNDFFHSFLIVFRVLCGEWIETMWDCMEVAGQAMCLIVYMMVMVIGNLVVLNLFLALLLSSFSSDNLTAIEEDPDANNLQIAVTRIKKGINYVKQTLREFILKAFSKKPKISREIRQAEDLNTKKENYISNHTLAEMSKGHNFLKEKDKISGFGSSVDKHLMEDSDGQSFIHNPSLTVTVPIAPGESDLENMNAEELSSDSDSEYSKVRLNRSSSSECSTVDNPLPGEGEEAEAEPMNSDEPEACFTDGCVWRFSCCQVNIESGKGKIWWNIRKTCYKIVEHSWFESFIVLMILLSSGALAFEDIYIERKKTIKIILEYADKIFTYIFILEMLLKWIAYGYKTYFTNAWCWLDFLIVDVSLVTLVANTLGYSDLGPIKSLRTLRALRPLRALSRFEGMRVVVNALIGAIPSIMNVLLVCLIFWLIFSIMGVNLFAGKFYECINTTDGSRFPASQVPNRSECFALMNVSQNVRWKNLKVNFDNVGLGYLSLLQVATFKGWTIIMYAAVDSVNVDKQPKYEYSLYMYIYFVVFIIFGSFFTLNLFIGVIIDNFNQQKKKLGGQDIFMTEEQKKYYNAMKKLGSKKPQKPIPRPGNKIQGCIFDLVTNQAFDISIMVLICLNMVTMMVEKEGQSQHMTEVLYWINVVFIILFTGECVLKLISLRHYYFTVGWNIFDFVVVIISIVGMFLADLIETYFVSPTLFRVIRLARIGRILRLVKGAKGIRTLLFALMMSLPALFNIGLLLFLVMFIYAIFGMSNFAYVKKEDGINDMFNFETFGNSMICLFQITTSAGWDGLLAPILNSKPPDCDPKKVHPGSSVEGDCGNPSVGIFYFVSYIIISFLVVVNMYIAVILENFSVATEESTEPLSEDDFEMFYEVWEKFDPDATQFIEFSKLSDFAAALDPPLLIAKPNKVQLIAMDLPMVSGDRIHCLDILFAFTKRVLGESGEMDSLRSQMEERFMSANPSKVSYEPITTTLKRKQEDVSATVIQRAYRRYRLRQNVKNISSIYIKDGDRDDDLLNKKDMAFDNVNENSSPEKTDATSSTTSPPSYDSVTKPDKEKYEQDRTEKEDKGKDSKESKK

With `CCCCCCCC/C=C\CCCCCCCC(=O)OC(COC(=O)CCCCCCCCCCCCCCC)CO[C@@H]1O[C@H](CO)[C@H](O)[C@H](O)[C@H]1O` (stereo partly drawn) [compound 1, 1-palmitoyl-2-oleoyl-3-(β-D-galactosyl)-glycerol], the dissociation constant Kd in assay [1] amounted to 49.9 µM. In assay [2], `CCCCCCCCCCCCCCCC(=O)OC[C@H](CO[C@H]1O[C@H](CS(=O)(=O)O)[C@@H](O)[C@H](O)[C@H]1O)OC(=O)CCCCCCCCCCCCCCC` [compound 2, sulfoquinovosyldiacylglycerin] returned a dissociation constant (Kd) of 25.2 µM.
